Assay results reported in patent US8466145B2, “Dipeptidyl peptidase IV inhibitors” (Orchid Chemicals & Pharmaceuticals Limited, priority 2009, dated 2013).
pIC50: −log10 of the molar value.

Assays:
[1] = target: T1, human recombinant Dipeptidyl peptidase IV enzyme (hrDPP IV) (Homo sapiens, UniProt P27487); assay: DPP IV assay, cleavage of H-Gly-Pro-AMC by human recombinant DPP-IV enzyme; format: biochemical; conditions: for inhibition at 0.3 µM: 300 nM compound concentration
T1 construct: purchased R&D systems
T1 sequence (P27487 whole entry): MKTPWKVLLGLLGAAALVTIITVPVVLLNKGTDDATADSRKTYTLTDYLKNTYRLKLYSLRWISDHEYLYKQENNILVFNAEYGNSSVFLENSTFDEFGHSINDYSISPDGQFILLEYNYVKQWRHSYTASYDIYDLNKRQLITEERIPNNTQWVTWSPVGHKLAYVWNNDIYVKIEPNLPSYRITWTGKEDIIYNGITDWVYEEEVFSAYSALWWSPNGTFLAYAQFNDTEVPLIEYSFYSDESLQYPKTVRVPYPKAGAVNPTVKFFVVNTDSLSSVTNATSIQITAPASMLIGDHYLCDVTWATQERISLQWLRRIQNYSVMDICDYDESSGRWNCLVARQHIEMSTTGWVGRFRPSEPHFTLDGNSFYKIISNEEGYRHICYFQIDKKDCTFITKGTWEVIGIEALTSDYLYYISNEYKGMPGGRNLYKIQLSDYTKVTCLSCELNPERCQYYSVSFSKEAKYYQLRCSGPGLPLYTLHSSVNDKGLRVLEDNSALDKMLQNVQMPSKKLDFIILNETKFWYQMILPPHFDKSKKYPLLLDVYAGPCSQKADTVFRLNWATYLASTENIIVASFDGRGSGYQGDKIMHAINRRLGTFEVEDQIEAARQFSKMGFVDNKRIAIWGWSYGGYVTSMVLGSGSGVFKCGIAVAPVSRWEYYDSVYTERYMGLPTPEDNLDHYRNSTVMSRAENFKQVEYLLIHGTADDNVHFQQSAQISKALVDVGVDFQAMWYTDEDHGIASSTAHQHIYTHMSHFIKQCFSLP
Procedure: DPP IV activity was determined by the cleavage rate of 7-amino 4-methylcoumarin (AMC) from the substrate H-Gly-Pro-AMC. In brief, the assay was conducted by adding 3 ng of human recombinant Dipeptidyl peptidase IV enzyme (hrDPP IV, available commercially from R&D systems) in 70 μL of the assay buffer (25 mM HEPES, 140 mM NaCl and 1% BSA, pH 7.8) to a 96 well black flat bottom microtitre plate. Test compounds were added as 10 μL additions to all wells except blank and total activity wells. After incubation of test substance with enzyme for 60 minutes at room temperature, 10 μL of 100 μM substrate H-Gly-Pro-AMC was added. After mixing, the plate was left for 20 minutes at room temperature. Then the reaction was terminated by addition of 10 μL of 25% glacial acetic acid. Fluorescence was measured using Spectra Max Gemini XS (Molecular Devices, USA) at an excitation filter of 360 nm and emission filter of 460 nm.
Test compounds dissolved in DMSO were diluted with assay buffer at different concentrations and tested in duplicates. Percentage inhibition was calculated with respect to total activity. IC50 value was calculated using Prism Software.

[2] = target: T2, human recombinant Dipeptidyl peptidase 8 enzyme (hrDPP 8) (Homo sapiens, UniProt Q6V1X1); assay: DPP 8 assay, cleavage of H-Ala-Pro-AFC; format: biochemical; conditions: for Selectivity (Fold) DPP 8: selectivity for DPP-IV over DPP 8
T2 construct: purchased R&D systems
T2 sequence (Q6V1X1 whole entry): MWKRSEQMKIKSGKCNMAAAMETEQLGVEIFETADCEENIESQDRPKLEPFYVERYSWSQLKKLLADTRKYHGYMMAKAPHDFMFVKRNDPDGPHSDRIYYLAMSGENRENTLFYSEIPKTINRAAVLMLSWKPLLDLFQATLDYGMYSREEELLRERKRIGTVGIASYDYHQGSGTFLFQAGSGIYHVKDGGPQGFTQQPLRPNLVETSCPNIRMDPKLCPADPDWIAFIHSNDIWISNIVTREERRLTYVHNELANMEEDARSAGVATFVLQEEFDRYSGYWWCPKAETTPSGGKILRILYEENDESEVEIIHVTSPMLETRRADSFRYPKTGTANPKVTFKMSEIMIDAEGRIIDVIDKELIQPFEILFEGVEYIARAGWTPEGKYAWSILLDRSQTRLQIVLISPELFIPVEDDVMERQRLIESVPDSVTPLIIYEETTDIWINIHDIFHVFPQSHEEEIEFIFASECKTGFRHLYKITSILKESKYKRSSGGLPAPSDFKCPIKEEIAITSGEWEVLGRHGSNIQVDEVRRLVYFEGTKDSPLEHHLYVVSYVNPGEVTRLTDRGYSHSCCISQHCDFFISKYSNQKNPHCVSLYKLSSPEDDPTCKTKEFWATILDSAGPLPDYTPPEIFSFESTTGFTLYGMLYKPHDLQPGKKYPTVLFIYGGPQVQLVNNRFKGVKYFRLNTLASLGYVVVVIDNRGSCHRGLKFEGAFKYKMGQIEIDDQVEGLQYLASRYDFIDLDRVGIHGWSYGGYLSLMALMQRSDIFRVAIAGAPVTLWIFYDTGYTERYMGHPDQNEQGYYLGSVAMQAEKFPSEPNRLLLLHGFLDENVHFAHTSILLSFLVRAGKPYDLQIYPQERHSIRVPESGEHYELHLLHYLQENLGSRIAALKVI
Procedure: DPP 8 activity was determined by the cleavage rate of 7-amino 4-fluoromethylcoumarin (AFC) from the substrate H-Ala-Pro-AFC. In brief, the assay was conducted by adding 30 ng of human recombinant Dipeptidyl peptidase 8 enzyme (hrDPP 8, available commercially from R&D systems) in 70 μL of the assay buffer (50 mM TRIS and 5 mM EDTA, pH 7.7) to a 96 well black flat bottom microtitre plate. Test compound was added as 10 μL additions to all wells except blank and total activity wells. After incubation of test substance with enzyme for 30 minutes at room temperature, 10 μL of 100 μM substrate H-Ala-Pro-AFC was added. After mixing, the plate was left for 30 minutes at room temperature. Then the reaction was terminated by addition of 10 μL of 25% Glacial Acetic Acid. Fluorescence was measured using Spectra Max Gemini XS (Molecular Devices, USA) at an excitation filter of 400 nm and emission filter of 505 nm.
Test compound dissolved in DMSO were diluted with assay buffer at different concentrations and tested in duplicates. Percentage inhibition was calculated with respect to total activity. IC50 value was calculated using Prism Software.

[3] = target: T3, human recombinant Dipeptidyl peptidase 9 enzyme (hrDPP 9) (Homo sapiens, UniProt Q86TI2); assay: DPP 9 assay, cleavage of H-Gly-Pro-AMC; format: biochemical; conditions: for Selectivity (Fold) DPP 9: selectivity for DPP-IV over DPP 9
T3 construct: purchased R&D systems
T3 sequence (Q86TI2 whole entry): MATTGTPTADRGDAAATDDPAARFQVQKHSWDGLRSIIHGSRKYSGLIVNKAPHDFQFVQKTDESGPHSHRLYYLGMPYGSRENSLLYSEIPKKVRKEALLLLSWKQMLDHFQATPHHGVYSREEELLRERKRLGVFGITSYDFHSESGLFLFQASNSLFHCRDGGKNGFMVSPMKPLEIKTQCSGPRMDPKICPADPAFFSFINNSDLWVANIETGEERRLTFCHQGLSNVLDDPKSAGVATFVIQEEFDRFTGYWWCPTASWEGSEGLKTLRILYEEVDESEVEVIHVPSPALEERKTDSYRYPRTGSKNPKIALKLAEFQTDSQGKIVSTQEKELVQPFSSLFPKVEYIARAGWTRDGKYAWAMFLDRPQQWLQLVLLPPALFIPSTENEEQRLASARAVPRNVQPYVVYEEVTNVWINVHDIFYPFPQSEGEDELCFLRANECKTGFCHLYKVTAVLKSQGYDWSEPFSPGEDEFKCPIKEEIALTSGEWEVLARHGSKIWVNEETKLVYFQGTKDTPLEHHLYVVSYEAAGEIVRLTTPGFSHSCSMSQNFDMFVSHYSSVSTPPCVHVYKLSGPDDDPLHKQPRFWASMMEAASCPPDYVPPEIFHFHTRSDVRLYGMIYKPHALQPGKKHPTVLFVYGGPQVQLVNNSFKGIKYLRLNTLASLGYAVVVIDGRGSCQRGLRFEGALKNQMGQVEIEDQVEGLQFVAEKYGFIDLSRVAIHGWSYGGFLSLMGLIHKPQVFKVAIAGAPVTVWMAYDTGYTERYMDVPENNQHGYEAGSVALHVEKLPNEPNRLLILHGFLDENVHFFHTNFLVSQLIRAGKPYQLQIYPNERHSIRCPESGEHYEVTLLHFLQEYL
Procedure: DPP 9 activity was determined by the cleavage rate of 7-amino 4-methylcoumarin (AMC) from the substrate H-Gly-Pro-AMC. In brief, the assay was conducted by adding 10 ng of human recombinant Dipeptidyl peptidase 9 enzyme (hrDPP 9, available commercially from R&D systems) in 70 μL of the assay buffer (50 mM TRIS and 5 mM EDTA, pH 7.7) to a 96 well black flat bottom microtitre plate. Test compound was added as 10 μL additions to all wells except blank and total activity wells. After incubation of test substance with enzyme for 30 minutes at room temperature, 10 μL of 100 μM substrate H-Gly-Pro-AMC was added. After mixing, the plate was left for 30 minutes at room temperature. Then the reaction was terminated by addition of 10 μL of 25% Glacial Acetic Acid. Fluorescence was measured using Spectra Max Gemini XS (Molecular Devices, USA) at an excitation filter of 360 nm and emission filter of 460 nm.
Test compound dissolved in DMSO were diluted with assay buffer at different concentrations and tested in duplicates. Percentage inhibition was calculated with respect to total activity. IC50 value was calculated by using Prism Software.

C57BL/6 mice = assay: Oral glucose tolerance test; format: in vivo; conditions: compound 10 mg/kg; for Antihyperglycemic activity, reduction in AUC (blood glucose), Time 6.00 hr: glucose 2 g/kg challenge 6.00 hr after compound administration, NA = No activity
Procedure: Effect of compound on glucose tolerance was examined in 7 week old C57BL/6 mice. Animals were kept for 18 h fasting and were challenged with glucose (2 g/kg) 30 min after compound (10 mg/kg) administration. Blood samples for glucose measurement were obtained by tail bleed pre dose and at serial time points after the glucose load (30, 60 and 120 minutes). Blood glucose estimation was done by using ContourTS active strips on glucometer (Bayer). To find the time response on glucose excursion, animals were challenged with glucose at different time point after compound administration (0.5, 2, 4, 6, 8, 12 or 24 hours) at blood glucose was measured at pre (0 minute) and post (30, 60 and 120 minutes) glucose load.
Results of blood glucose were expressed as area under curve (AUC) was calculated using Prism software.

| SMILES | pIC50 [1] | melting point [°C] | Selectivity (Fold) DPP 9 [3] [Fold] | inhibition at 0.3 µM [1] [%] | also measured |
| --- | --- | --- | --- | --- | --- |
| CC1(NCC(=O)N2C[C@@H](F)C[C@H]2C#N)CCC(CS(=O)(=O)c2ccc(S(C)(=O)=O)cc2)C1(C)C (stereo in doubt) [Example 45, (2S,4S)-4-Fluoro-1-(2-((1S,3R)-1,2,2-trimethyl-3-((4-(methylsulfonyl)phenylsulfonyl)methyl)cyclopentylamino)acetyl)pyrrolidine-2-carbonitrile] | 7.23 | 211 to 216 |  |  | IC50 ([2]; human recombinant DPP 8, read-out: DPP 8 (cell printed in μM in the Selectivity column)): > 300 µM; IC50 ([3]; human recombinant DPP 9, read-out: DPP 9 (cell printed in μM in the Selectivity column)): > 300 µM |
| CC1(C)[C@H](CN2CCCCS2(=O)=O)CC[C@]1(C)NCC(=O)N1C[C@@H](F)C[C@H]1C#N [Example 30, (2S,4S)-1-(2-((1S,3R)-3-[(1,1-Dioxido-1,2-thiazinan-2-yl)methyl]-1,2,2-trimethylcyclopentylamino)acetyl)-4-fluoropyrrolidine-2-carbonitrile] | 8.14 | 186 to 190 | >1250 |  | Antihyperglycemic activity, reduction in AUC (blood glucose), Time 6.00 hr (C57BL/6 mice): 30.90% |
| Cc1nc(C[C@@H]2CC[C@](C)(NCC(=O)N3C[C@@H](F)C[C@H]3C#N)C2(C)C)no1 [Example 55, (2S,4S)-4-Fluoro-1-(2-((1S,3S)-1,2,2-trimethyl-3-((5-methyl-1,2,4-oxadiazol-3-yl)methyl)cyclopentylamino)acetyl)pyrrolidine-2-carbonitrile] | 8.36 | 131 to 133 | >9000 |  | Antihyperglycemic activity, reduction in AUC (blood glucose), Time 0.50 hr (C57BL/6 mice; glucose 2 g/kg challenge 0.50 hr after compound administration): 48.30%; Antihyperglycemic activity, reduction in AUC (blood glucose), Time 4.00 hr (C57BL/6 mice; glucose 2 g/kg challenge 4.00 hr after compound administration): 45.69%; Antihyperglycemic activity, reduction in AUC (blood glucose), Time 6.00 hr (C57BL/6 mice): 28.28%; Antihyperglycemic activity, reduction in AUC (blood glucose), Time 8.00 hr (C57BL/6 mice; glucose 2 g/kg challenge 8.00 hr after compound administration): 18.63% |
| CC(C)c1nc(C[C@@H]2CC[C@](C)(NCC(=O)N3C[C@@H](F)C[C@H]3C#N)C2(C)C)no1 [Example 61, (2S,4S)-4-Fluoro-1-(2-((1S,3S)-3-((5-isopropyl-1,2,4-oxadiazol-3-yl)methyl)-1,2,2-trimethylcyclopentylamino)acetyl)pyrrolidine-2-carbonitrile methanesulfonate] | 7.86 |  | >7271 | 96.2 |  |
| CC1(C)[C@H](Cc2noc(-c3ccc(F)cc3)n2)CC[C@]1(C)NCC(=O)N1C[C@@H](F)C[C@H]1C#N [Example 62, (2S,4S)-4-Fluoro-1-(2-((1S,3S)-3-((5-(4-fluorophenyl)-1,2,4-oxadiazol-3-yl)methyl)-1,2,2-trimethylcyclopentylamino)acetyl)pyrrolidine-2-carbonitrile] |  | 158 to 216 |  | 79.8 |  |
| CC1(C)[C@H](Cc2noc(-c3ccncc3)n2)CC[C@]1(C)NCC(=O)N1C[C@@H](F)C[C@H]1C#N [Example 63, (2S,4S)-4-Fluoro-1-(2-((1S,3S)-1,2,2-trimethyl-3-((5-(pyridin-4-yl)-1,2,4-oxadiazol-3-yl)methyl)cyclopentylamino)acetyl)pyrrolidine-2-carbonitrile] | 7.72 | 180 to 184 | >1850 | 92.6 |  |
| CC1(C)[C@H](NCC(=O)N2C[C@@H](F)C[C@H]2C#N)CC[C@]1(C)c1nc(-c2ccc(F)cc2)no1 [Example 64, (2S,4S)-4-Fluoro-1-(2-((1R,3S)-3-(3-(4-fluorophenyl)-1,2,4-oxadiazol-5-yl)-2,2,3-trimethylcyclopentylamino)acetyl)pyrrolidine-2-carbonitrile] | 7.12 |  | >250 |  | Selectivity (Fold) DPP 8 [2]: >450 Fold |
| CC1(C)[C@H](NCC(=O)N2C[C@@H](F)C[C@H]2C#N)CC[C@]1(C)c1nc(-c2cccnc2)no1 [Example 69, (2S,4S)-4-Fluoro-1-(2-((1R,3S)-2,2,3-trimethyl-3-(3-(pyridin-3-yl)-1,2,4-oxadiazol-5-yl)cyclopentylamino)acetyl)pyrrolidine-2-carbonitrile] | 7.73 | 70 to 75 | >150 |  | Selectivity (Fold) DPP 8 [2]: >1800 Fold |
| CC1(C)[C@@H](NCC(=O)N2C[C@@H](F)C[C@H]2C#N)CC[C@@]1(C)CCCn1cncn1 [Example 83, (2S,4S)-1-(2-((1S,3R)-3-(3-(1H-1,2,4-Triazol-1-yl)propyl)-2,2,3-trimethylcyclopentylamino)acetyl)-4-fluoropyrrolidine-2-carbonitrile] | 8.39 | 152 to 154 |  | 93.9 |  |

Continued, in another order:

| pIC50 [1] | melting point [°C] | Selectivity (Fold) DPP 9 [3] [Fold] | inhibition at 0.3 µM [1] [%] | SMILES | also measured |
| --- | --- | --- | --- | --- | --- |
| 7.71 | 130 to 131 |  | 95.7 | CC1(C)[C@H](Cc2noc(C(F)(F)F)n2)CC[C@]1(C)NCC(=O)N1C[C@@H](F)C[C@H]1C#N [Example 56, (2S,4S)-4-Fluoro-1-(2-((1S,3S)-1,2,2-trimethyl-3-((5-(trifluoromethyl)-1,2,4-oxadiazol-3-yl)methyl)cyclopentylamino)acetyl)pyrrolidine-2-carbonitrile] | Antihyperglycemic activity, reduction in AUC (blood glucose), Time 6.00 hr (C57BL/6 mice): 7.07% |
|  | 82 to 85 |  | 79.2 | CC(C)c1noc([C@]2(C)CC[C@H](NCC(=O)N3C[C@@H](F)C[C@H]3C#N)C2(C)C)n1 [Example 67, (2S,4S)-4-Fluoro-1-(2-((1S,3R)-3-(3-isopropyl-1,2,4-oxadiazol-5-yl)-2,2,3-trimethylcyclopentylamino)acetyl)pyrrolidine-2-carbonitrile] |  |
| 7.40 | 126 to 130 | >15 |  | CC1(C)[C@@H](NCC(=O)N2C[C@@H](F)C[C@H]2C#N)CC[C@@]1(C)c1nc(-c2cccnc2)no1 [Example 68, (2S,4S)-4-Fluoro-1-(2-((1S,3R)-2,2,3-trimethyl-3-(3-(pyridin-3-yl)-1,2,4-oxadiazol-5-yl)cyclopentylamino)acetyl)pyrrolidine-2-carbonitrile] | Selectivity (Fold) DPP 8 [2]: >250 Fold |
| 7.64 | 167 to 171 |  |  | CC1(C)[C@H](NCC(=O)N2C[C@@H](F)C[C@H]2C#N)CC[C@]1(C)c1nc(-c2ccncc2)no1 [Example 71, (2S,4S)-4-Fluoro-1-(2-((1R,3S)-2,2,3-trimethyl-3-(3-(pyridin-4-yl)-1,2,4-oxadiazol-5-yl)cyclopentylamino)acetyl)pyrrolidine-2-carbonitrile] |  |
|  | 122 to 126 |  | 4.25 | CN1C[C@]2(C)CC[C@](NCC(=O)N3C[C@@H](F)C[C@H]3C#N)(C1)C2(C)C [Example 76, (2S,4S)-4-Fluoro-1-(2-((1R,5R)-3,5,8,8-tetramethyl-3-azabicyclo[3.2.1]octan-1-ylamino)acetyl)pyrrolidine-2-carbonitrile] |  |
